This is an account of results in US9150575B2, “Piperidinylpyrazolopyridine derivative” (Daiichi Sankyo Company, Limited, priority 2012, dated 2015).

This experiment has as its target T1, LCAT (Homo sapiens, UniProt P04180).
T1 construct: The obtained fraction was dialyzed against phosphate-buffered saline (pH 7.4) and used as an enzyme source and an acceptor for LCAT; from tissue; host or cells: HDL3 fraction (1.125<specific gravity<1.210 g/mL) of plasma from a healthy person
T1 sequence (P04180 25-440): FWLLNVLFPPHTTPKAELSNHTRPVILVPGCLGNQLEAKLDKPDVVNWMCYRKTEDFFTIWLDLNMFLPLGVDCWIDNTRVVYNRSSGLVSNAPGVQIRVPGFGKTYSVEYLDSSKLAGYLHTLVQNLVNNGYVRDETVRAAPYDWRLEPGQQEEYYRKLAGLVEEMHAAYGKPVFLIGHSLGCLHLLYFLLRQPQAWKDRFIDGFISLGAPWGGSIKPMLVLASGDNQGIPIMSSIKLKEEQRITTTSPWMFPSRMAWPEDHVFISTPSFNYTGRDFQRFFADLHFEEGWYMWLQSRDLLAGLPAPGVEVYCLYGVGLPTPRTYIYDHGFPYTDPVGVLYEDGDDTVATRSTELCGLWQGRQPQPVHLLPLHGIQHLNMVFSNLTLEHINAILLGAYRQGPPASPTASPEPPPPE
Briefly: LCAT Activity Measurement (In Vitro). It is filed as biochemical. To be noted: EC50 of LCAT activation; HDL3 fraction from plasma of a healthy person as enzyme source and acceptor; [14C]cholesterol; 37° C., approximately 16 hours. As to the method:
A fraction composed of HDL3 (1.125<specific gravity<1.210 g/mL) was obtained from the plasma of a healthy person by density gradient centrifugation. The obtained fraction was dialyzed against phosphate-buffered saline (pH 7.4) and used as an enzyme source and an acceptor for LCAT. Each test drug was prepared by dissolution in dimethyl sulfoxide. [14C]Cholesterol containing DTNB (Ellman's reagent, final concentration: 0.5 mM), mercaptoethanol (final concentration: 12.5 mM), and 0.6% bovine serum albumin was added to phosphate-buffered saline (pH 7.4) containing 1 mg/mL HDL3, and the test drug was further added thereto at varying concentrations to adjust the whole amount to 80 μL. This mixture was incubated at 37° C. for approximately 16 hours. Then, a mixed solution of hexane and isopropanol (mixing ratio=3:2) was added thereto to stop the reaction. After stirring, the hexane layer was collected, and this layer was evaporated to dryness. A chloroform solution (concentration: 10 mg/mL) was added thereto, and the mixture was spotted onto a thin-layer silica gel plate and developed using a mixed solution of hexane, diethyl ether, and ethyl acetate (mixing ratio=85:15:2). The radioactivity of a portion corresponding to cholesterol oleate was measured using an imaging analyzer BAS-2500 (manufactured by Fujifilm Corp.). A sample non-supplemented with the test drug was similarly treated and assayed. The EC50 value of LCAT activation was calculated according to the expression given below relative to LCAT activity in the sample non-supplemented with the test drug.
wherein X represents the logarithm of the concentration of the test drug;
Y represents the responsiveness (LCAT activity) of the test drug;
Top represents the maximum value (maximum plateau);
Bottom represents the minimum value (minimum plateau); and
EC50 represents the 50% effective concentration.

In general, EC50 refers to the concentration that produces a half-maximal response. Lower therefore signals greater potency. As to `O=C1CC(O)(C(F)(F)F)c2c(C3CCN(c4cc(I)c(C(F)(F)F)cn4)CC3)n[nH]c2N1` (single isomer, unassigned) [Compound 103-1, 4-hydroxy-3-{1-[4-iodo-5-(trifluoromethyl)pyridin-2-yl]piperidin-4-yl}-4-(trifluoromethyl)-1,4,5,7-tetrahydro-6H-pyrazolo[3,4-b]pyridin-6-one], the midpoint of the response, the EC50, lay at 27 nM. Turning to `O=C1CC(O)(C(F)(F)F)c2c(C3CCN(c4cc(I)c(C(F)(F)F)cn4)CC3)n[nH]c2N1` (single isomer, unassigned) [Compound 103-2, 4-hydroxy-3-{1-[4-iodo-5-(trifluoromethyl)pyridin-2-yl]piperidin-4-yl}-4-(trifluoromethyl)-1,4,5,7-tetrahydro-6H-pyrazolo[3,4-b]pyridin-6-one], the EC50 is 530 nM.

In turn, `O=C1CC(O)(C(F)(F)F)c2c(C3CCN(c4ccc(C(F)(F)F)cn4)CC3)n[nH]c2N1` (single isomer, unassigned; (+)) [Compound 49-2, (+)-4-hydroxy-4-(trifluoromethyl)-3-{1-[5-(trifluoromethyl)pyridin-2-yl]piperidin-4-yl}-1,4,5,7-tetrahydro-6H-pyrazolo[3,4-b]pyridin-6-one] had an EC50 of 3770 nM. Then `O=C1CC(O)(C(F)(F)F)c2c(C3CCN(c4ccc(OC(F)F)cc4)CC3)n[nH]c2N1` (single isomer, unassigned; (+)) [Compound 56-2, (+)-3-{1-[4-(difluoromethoxy)phenyl]piperidin-4-yl}-4-hydroxy-4-(trifluoromethyl)-1,4,5,7-tetrahydro-6H-pyrazolo[3,4-b]pyridin-6-one], with 980 nM; and `O=C1CC(O)(C(F)(F)F)c2c(C3CCN(c4ccc(C(F)(F)F)cn4)CC3)n[nH]c2N1` (single isomer, unassigned; (-)) [Compound 49-1, (−)-4-Hydroxy-4-(trifluoromethyl)-3-{1-[5-(trifluoromethyl)pyridin-2-yl]piperidin-4-yl}-1,4,5,7-tetrahydro-6H-pyrazolo[3,4-b]pyridin-6-one], with 18 nM; and `O=C1CC(O)(C(F)(F)F)c2c(C3CCN(c4nc(C(F)(F)F)cs4)CC3)n[nH]c2N1` (centres unmarked) [Compound 48-a, 4-Hydroxy-4-(trifluoromethyl)-3-{1-[4-(trifluoromethyl)-1,3-thiazol-2-yl]piperidin-4-yl}-1,4,5,7-tetrahydro-6H-pyrazolo[3,4-b]pyridin-6-one], with 80 nM. For the compound `O=C1CC(O)(C(F)(F)F)c2c(C3CCN(c4nc(C(F)(F)F)c(-c5nc(C(F)(F)F)cs5)s4)CC3)n[nH]c2N1` (centres unmarked) [Compound 48-b, 3-{1-[4,4′-bis(trifluoromethyl)-2,5′-bi-1,3-thiazol-2′-yl]piperidin-4-yl}-4-hydroxy-4-(trifluoromethyl)-1,4,5,7-tetrahydro-6H-pyrazolo[3,4-b]pyridin-6-one], the midpoint of the response, the EC50, lay at 46 nM. The compound `O=C1CC(O)(C(F)(F)F)c2c(C3CCN(c4ccc(C(F)(F)F)c(Cl)n4)CC3)n[nH]c2N1` (centres unmarked) [Compound 98-a, 3-{1-[6-Chloro-5-(trifluoromethyl)pyridin-2-yl]piperidin-4-yl}-4-hydroxy-4-(trifluoromethyl)-1,4,5,7-tetrahydro-6H-pyrazolo[3,4-b]pyridin-6-one] returned a concentration giving a half-maximal response (EC50) of 23 nM. The result for `O=C1CC(O)(C(F)(F)F)c2c(C3CCN(c4nc(Cl)ccc4C(F)(F)F)CC3)n[nH]c2N1` (centres unmarked) [Compound 98-b, 3-{1-[6-chloro-3-(trifluoromethyl)pyridin-2-yl]piperidin-4-yl}-4-hydroxy-4-(trifluoromethyl)-1,4,5,7-tetrahydro-6H-pyrazolo[3,4-b]pyridin-6-one] reads 510 nM; that for `O=C1CC(O)(C(F)(F)F)c2c(C3CCN(c4ccccc4)CC3)n[nH]c2N1` (centres unmarked) [Example 1, 4-Hydroxy-3-(1-phenylpiperidin-4-yl)-4-(trifluoromethyl)-1,4,5,7-tetrahydro-6H-pyrazolo[3,4-b]pyridin-6-one], 1510 nM; that for `O=C1CC(O)(C(F)(F)F)c2c(C3CCN(c4ccccn4)CC3)n[nH]c2N1` (centres unmarked) [Example 2, 4-Hydroxy-3-[1-(pyridin-2-yl)piperidin-4-yl]-4-(trifluoromethyl)-1,4,5,7-tetrahydro-6H-pyrazolo[3,4-b]pyridin-6-one], 520 nM. The result for `Cc1cccc(N2CCC(c3n[nH]c4c3C(O)(C(F)(F)F)CC(=O)N4)CC2)n1` (centres unmarked) [Example 3, 4-Hydroxy-3-[1-(6-methylpyridin-2-yl)piperidin-4-yl]-4-(trifluoromethyl)-1,4,5,7-tetrahydro-6H-pyrazolo[3,4-b]pyridin-6-one] reads 630 nM; that for `Cc1ccc(N2CCC(c3n[nH]c4c3C(O)(C(F)(F)F)CC(=O)N4)CC2)nc1` (centres unmarked) [Example 4, 4-Hydroxy-3-[1-(5-methylpyridin-2-yl)piperidin-4-yl]-4-(trifluoromethyl)-1,4,5,7-tetrahydro-6H-pyrazolo[3,4-b]pyridin-6-one], 250 nM; that for `Cc1ccnc(N2CCC(c3n[nH]c4c3C(O)(C(F)(F)F)CC(=O)N4)CC2)c1` (centres unmarked) [Example 5, 4-Hydroxy-3-[1-(4-methylpyridin-2-yl)piperidin-4-yl]-4-(trifluoromethyl)-1,4,5,7-tetrahydro-6H-pyrazolo[3,4-b]pyridin-6-one], 290 nM. The result for `Cc1cccnc1N1CCC(c2n[nH]c3c2C(O)(C(F)(F)F)CC(=O)N3)CC1` (centres unmarked) [Example 6, 4-Hydroxy-3-[1-(3-methylpyridin-2-yl)piperidin-4-yl]-4-(trifluoromethyl)-1,4,5,7-tetrahydro-6H-pyrazolo[3,4-b]pyridin-6-one] reads 1260 nM; that for `O=C1CC(O)(C(F)(F)F)c2c(C3CCN(c4ncccc4C(F)(F)F)CC3)n[nH]c2N1` (centres unmarked) [Example 9, 4-Hydroxy-4-(trifluoromethyl)-3-{1-[3-(trifluoromethyl)pyridin-2-yl]piperidin-4-yl}-1,4,5,7-tetrahydro-6H-pyrazolo[3,4-b]pyridin-6-one], 1150 nM.

As for `O=C1CC(O)(C(F)(F)F)c2c(C3CCN(c4ncccc4Cl)CC3)n[nH]c2N1` (centres unmarked) [Example 11, 3-[1-(3-Chloropyridin-2-yl)piperidin-4-yl]-4-hydroxy-4-(trifluoromethyl)-1,4,5,7-tetrahydro-6H-pyrazolo[3,4-b]pyridin-6-one], a half-maximal effect (EC50) was put at 3090 nM. On to `COc1cccc(N2CCC(c3n[nH]c4c3C(O)(C(F)(F)F)CC(=O)N4)CC2)n1` (centres unmarked) [Example 12, 4-Hydroxy-3-[1-(6-methoxypyridin-2-yl)piperidin-4-yl]-4-(trifluoromethyl)-1,4,5,7-tetrahydro-6H-pyrazolo[3,4-b]pyridin-6-one], for which a half-maximal response (EC50) required 54 nM.

`O=C1CC(O)(C(F)(F)F)c2c(C3CCN(c4cc(C(F)(F)F)ccn4)CC3)n[nH]c2N1` (centres unmarked) [Example 13, 4-Hydroxy-4-(trifluoromethyl)-3-{1-[4-(trifluoromethyl)pyridin-2-yl]piperidin-4-yl}-1,4,5,7-tetrahydro-6H-pyrazolo[3,4-b]pyridin-6-one] had an EC50 of 56 nM.

Consider `O=C1CC(O)(C(F)(F)F)c2c(C3CCN(c4ccc(Cl)cn4)CC3)n[nH]c2N1` (centres unmarked) [Example 14, 3-[1-(5-Chloropyridin-2-yl)piperidin-4-yl]-4-hydroxy-4-(trifluoromethyl)-1,4,5,7-tetrahydro-6H-pyrazolo[3,4-b]pyridin-6-one], for which the concentration for a half-maximal effect (EC50) was 86 nM.
